Consider 29 molecules from US20060276464A1, “Diarylsulfone sulfonamides and use thereof” (Wyeth, priority 2005, published 2006).

Where two headings read alike, the source gives them in different places.

This assay has as its target T1, SFRP-1 (Homo sapiens, UniProt Q8N474).
T1 sequence (Q8N474 32-314): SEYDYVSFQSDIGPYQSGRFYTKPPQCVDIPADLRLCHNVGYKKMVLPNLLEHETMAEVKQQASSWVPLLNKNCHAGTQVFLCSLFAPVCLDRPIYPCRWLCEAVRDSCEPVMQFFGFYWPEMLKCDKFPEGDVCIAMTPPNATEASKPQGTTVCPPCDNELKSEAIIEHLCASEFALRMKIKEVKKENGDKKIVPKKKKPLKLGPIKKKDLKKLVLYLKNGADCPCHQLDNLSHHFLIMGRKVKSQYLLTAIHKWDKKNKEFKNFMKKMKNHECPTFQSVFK
Kind of assay: Cell-based assay for in vitro measurement of SFRP-1/SARP2 antagonist activity (U2OS cells co-transfected with 16x TCF-tk-Luciferase reporter, Wnt and hSFRP-1).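 Also: U2OS cells co-transfected with a TCF-tk luciferase reporter, a Wnt vector, hSFRP-1 or empty vector and CMV-βgal, luciferase luminescence read in cell lysates alongside βgal activity.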 The following applies: U2OS. Background: Reporter assays use an easily measured gene product as a stand-in for the process of interest.

The mark [1] stands for this setting: read-out: Fold Induction with SFRP-1, Conc 15 μM, with SFRP-1, fold induction over SFRP-1 control, single dose.
Setting [2] is: read-out: Fold Induction without SFRP-1, Conc 15 μM, without SFRP-1, single dose.
Where [3] appears, read: read-out: Fold Induction with SFRP-1, Conc 15 μM, single dose, luciferase reporter, fold induction over SFRP-1 control, cells with SFRP-1.
[4] abbreviates: read-out: Fold Induction without SFRP-1, Conc 15 μM, single dose, luciferase reporter, cells without SFRP-1 (specificity control).

For `Cc1ccc(S(=O)(=O)c2ccccc2)cc1S(=O)(=O)NC1CCNCC1` [Example 447, 2-methyl-5-(phenylsulfonyl)-N-piperidin-4-ylbenzenesulfonamide], the fold induction at 15 µM under setting [1] amounted to 3 and the fold induction at 15 µM under setting [2] was found to be 1.1.
The matching figures for `CNc1ccc(S(=O)(=O)c2ccc(C(C)C)c(S(=O)(=O)NCCn3ccnc3)c2)cc1` [Example 451, N-[2-(1H-imidazol-1-yl)ethyl]-2-isopropyl-5-{[4-(methylamino)phenyl]sulfonyl)benzenesulfonamide]: 3.7 and 1.1.
The matching figures for `Cc1cc(C)cc(S(=O)(=O)c2ccc(C(C)C)c(S(=O)(=O)NCCc3ccccn3)c2)c1` [Example 454, 5-[(3,5-dimethylphenyl)sulfonyl]-2-isopropyl-N-(2-pyridin-2-ylethyl)benzenesulfonamide]: 1.7 and 1.1.
The matching figures for `CC(C)c1ccc(S(=O)(=O)c2cc(F)cc(F)c2)cc1S(=O)(=O)NCCc1ccccn1` [Example 458, 5-[(3,5-difluorophenyl)sulfonyl]-2-isopropyl-N-(2-pyridin-2-ylethyl)benzenesulfonamide]: 2.9 and 0.9.
As for `O=S(=O)(NCCc1ccccn1)c1cc(S(=O)(=O)c2ccccc2)ccc1C1CCCCC1` [Example 459, 2-cyclohexyl-5-(phenylsulfonyl)-N-(2-pyridin-2-ylethyl)benzenesulfonamide], the fold induction at 15 µM by setting is: under setting [1], 1.6; under setting [2], 0.9.
The matching figures for `O=S(=O)(NCCc1ccccn1)c1cc(S(=O)(=O)c2ccc(F)cc2)ccc1C1CCCCC1` [Example 460, 2-cyclohexyl-5-[(4-fluorophenyl)sulfonyl]-N-(2-pyridin-2-ylethyl)benzenesulfonamide]: 1.1 and 1.
The matching figures for `COCC(=O)N1CCC(NS(=O)(=O)c2cc(S(=O)(=O)c3ccccc3)ccc2C)CC1` [Example 469, N-[1-(methoxyacetyl)piperidin-4-yl]-2-methyl-5-(phenylsulfonyl)benzenesulfonamide]: 3.6 and 1.1.
The matching figures for `Cc1ccc(S(=O)(=O)c2ccccc2)cc1S(=O)(=O)NC1CCN(C(=O)Cc2ccccc2)CC1` [Example 470, 2-methyl-N-[1-(phenylacetyl)piperidin-4-yl]-5-(phenylsulfonyl)benzenesulfonamide]: 1.6 and 1.1.
On to `Cc1ccc(S(=O)(=O)c2ccccc2)c(C)c1S(=O)(=O)NCCc1ccccn1` [Example 472, 2,6-dimethyl-3-(phenylsulfonyl)-N-(2-pyridin-2-ylethyl)benzenesulfonamide], for which the fold induction at 15 µM came out at 0.9 under setting [1] and 0.9 under setting [2].
Consider `Cc1ccc(S(=O)(=O)c2ccccc2)c(C)c1S(=O)(=O)NC1CCOCC1` [Example 473, 2,6-dimethyl-3-(phenylsulfonyl)-N-(tetrahydro-2H-pyran-4-yl)benzenesulfonamide], for which the fold induction at 15 µM reads like this: under setting [1], 0.9; under setting [2], 0.9.
`Cc1ccc(S(=O)(=O)c2ccccc2)cc1S(=O)(=O)NC1CCN(C(=O)C2CC2)CC1` [Example 475, N-[1-(cyclopropylcarbonyl)piperidin-4-yl]-2-methyl-5-(phenylsulfonyl)benzenesulfonamide]: the fold induction at 15 µM under setting [1] turned out to be 1.9 and the fold induction at 15 µM under setting [2] turned out to be 1.1.
The matching figures for `CC(=O)N1CCC(NS(=O)(=O)c2cc(S(=O)(=O)c3ccccc3)ccc2C)CC1` [Example 479, N-(1-acetylpiperidin-4-yl)-2-methyl-5-(phenylsulfonyl)benzenesulfonamide]: 2.1 and 1.1.
In the case of `Cc1ccc(S(=O)(=O)c2ccccc2)cc1S(=O)(=O)NC1CCN(S(=O)(=O)c2cccc3c(N(C)C)cccc23)CC1` [Example 483, N-(1-{[5-(dimethylamino)-1-naphthyl]sulfonyl}piperidin-4-yl)-2-methyl-5-(phenylsulfonyl)benzenesulfonamide], the fold induction at 15 µM came to 2.9 under setting [1] and 1 under setting [2].
On to `Cc1ccc(S(=O)(=O)c2ccccc2)cc1S(=O)(=O)NC1CCN(C(=O)NC2CCCCC2)CC1` [Example 491, N-cyclohexyl-4-({[2-methyl-5-(phenylsulfonyl)phenyl]sulfonyl}amino)piperidine-1-carboxamide], for which the fold induction at 15 µM worked out at 1.1 under setting [3] and 1 under setting [4].
The matching figures for `Cc1ccc(S(=O)(=O)c2cc(Cl)cc(C#N)c2)cc1S(=O)(=O)NCCc1ccccn1` [Example 492, 5-[(3-chloro-5-cyanophenyl)sulfonyl]-2-methyl-N-(2-pyridin-2-ylethyl)benzenesulfonamide]: 1.6 and 1.2.
The matching figures for `Cc1c(S(=O)(=O)NCCCn2ccnc2)cccc1S(=O)(=O)c1ccccc1` [Example 493, N-[3-(1H-imidazol-1-yl)propyl]-2-methyl-3-(phenylsulfonyl)benzenesulfonamide]: 1 and 1.1.
The matching figures for `Cc1c(S(=O)(=O)NCCc2ccccn2)cccc1S(=O)(=O)c1ccccc1` [Example 494, 2-methyl-3-(phenylsulfonyl)-N-(2-pyridin-2-ylethyl)benzenesulfonamide]: 1 and 1.1.
`Cc1c(S(=O)(=O)NCCN2CCOCC2)cccc1S(=O)(=O)c1ccccc1` [Example 495, 2-methyl-N-(2-morpholin-4-ylethyl)-3-(phenylsulfonyl)benzenesulfonamide]: the fold induction at 15 µM runs as follows: under setting [3], 1.1; under setting [4], 1.3.
The matching figures for `Cc1ccc(S(=O)(=O)c2ccccc2)cc1S(=O)(=O)NC1CCN(C(=O)Oc2ccc(F)cc2)CC1` [Example 500, 4-fluorophenyl 4-({[2-methyl-5-(phenylsulfonyl)phenyl]sulfonyl}amino)piperidine-1-carboxylate]: 1.6 and 0.8.
The matching figures for `CC(C)c1ccc(S(=O)(=O)c2ccc3c(c2)C(C)(C)OC(=O)N3)cc1S(=O)(=O)NCCc1ccccn1` [Example 515, 5-[(4,4-dimethyl-2-oxo-1,4-dihydro-2H-3,1-benzoxazin-6-yl)sulfonyl]-2-isopropyl-N-(2-pyridin-2-ylethyl)benzenesulfonamide]: 1.8 and 1.
The matching figures for `CC(C)c1ccc(S(=O)(=O)c2ccc(F)cc2)cc1S(=O)(=O)NC1CC1` [Example 521, N-cyclopropyl-5-[(4-fluorophenyl)sulfonyl]-2-isopropylbenzenesulfonamide]: 1.7 and 1.
Turning to `CC(C)c1ccc(S(=O)(=O)c2ccc(F)cc2)cc1S(=O)(=O)NC1CCC1` [Example 522, N-cyclobutyl-5-[(4-fluorophenyl)sulfonyl]-2-isopropylbenzenesulfonamide], the fold induction at 15 µM runs as follows: under setting [3], 1.4; under setting [4], 0.9.
The matching figures for `CC(C)c1ccc(S(=O)(=O)c2ccc(F)cc2)cc1S(=O)(=O)NC1CCCCC1` [Example 524, N-cyclohexyl-5-[(4-fluorophenyl)sulfonyl]-2-isopropylbenzenesulfonamide]: 1.4 and 1.
The matching figures for `CC(C)c1ccc(S(=O)(=O)c2ccc(F)cc2)cc1S(=O)(=O)NCCN1CCCCC1` [Example 527, 5-[(4-fluorophenyl)sulfonyl]-2-isopropyl-N-(2-piperidin-1-ylethyl)benzenesulfonamide]: 2.3 and 1.2.
The matching figures for `CC(C)c1ccc(S(=O)(=O)c2ccc(F)cc2)cc1S(=O)(=O)NC1CCN(C(=S)Nc2ccc3c(c2)C(=O)OC32c3ccc(O)cc3Oc3cc(O)ccc32)CC1` [Example 538, N-(3′,6′-dihydroxy-3-oxo-3H-spiro[2-benzofuran-1,9′-xanthen]-5-yl)-4-[({5-[(4-fluorophenyl)sulfonyl]-2-isopropylphenyl}sulfonyl)amino]piperidine-1-carbothioamide]: 2.4 and 1.1.
As for `CCCc1ccc(S(=O)(=O)c2ccccc2)cc1S(N)(=O)=O` [Example 557, 5-(Phenylsulfonyl)-2-propylbenzenesulfonamide], the fold induction at 15 µM by setting is: under setting [3], 1.4; under setting [4], 1.2.
As for `CCCc1ccc(S(=O)(=O)c2ccc(F)cc2)cc1S(N)(=O)=O` [Example 566, 5-[(4-Fluorophenyl)sulfonyl]-2-propylbenzenesulfonamide], the fold induction at 15 µM is, setting by setting: under setting [3], 1.5; under setting [4], 1.3.
The matching figures for `Cc1ccc(S(=O)(=O)c2ccc(F)cc2)cc1S(=O)(=O)NC1CCNCC1` [Example 576, 5-[(4-fluorophenyl)sulfonyl]-2-methyl-N-piperidin-4-ylbenzenesulfonamide]: 3 and 1.2.
The matching figures for `CC(C)c1ccc(S(=O)(=O)c2ccc(F)cc2)cc1S(=O)(=O)NCCO` [Example 582, 5-[(4-fluorophenyl)sulfonyl]-N-(2-hydroxyethyl)-2-isopropylbenzenesulfonamide]: 2.6 and 1.
